Measurements published in patent publication US20110171171A1, “BRIDGED SECONDARY AMINES AND USE THEREOF AS IAP BIR DOMAIN BINDING COMPOUNDS” (Aegera Therapeutics, Inc., priority 2008, published 2011).

Tests used:
Format in all cases: cell-based
[1] = system: Ovarian adenocarcinoma SKOV3 cells; experiment: SKOV3 cell death assay (MTT, 72 hours); details: Homo sapiens, SK-OV-3, compound alone
Protocol: Ovarian adenocarcinoma SKOV3 cells were cultured as monolayers in McCoy's 5a medium (HyClone) supplemented with 2.2 g/L sodium bicarbonate (Gibco), 10% FBS (HyClone) and 1% penicillin/streptomycin (HyClone). Cells were seeded in 96 well plates at 5000 cells/well. After 24 hours in culture, cells were treated with compound. Cells were incubated in the presence of compound for 72 hours. Metabolic viability of remaining cells was assessed by MTT (thiazolyl blue tetrazolium bromide, Sigma) assay.
(§1) EC50 values (50% cell survival in the presence of compound as compared to untreated controls) were calculated from survival curves using BioAssay software (CambridgeSoft, HCT116 and SKOV3 SAR) and GraphPad Prism (Graph Pad Software Inc., Synoviocyte SAR).

[2] = system: Colorectal carcinoma HCT116 cells; experiment: HCT116 + ETR1 cell death assay (MTT, 72 hours); details: with HGS ETR1 40 ng/ml
Protocol: Colorectal carcinoma HCT116 cells were cultured as monolayers in 96 well plates at a density of 2000 cells per well in McCoy's 5a medium (HyClone) supplemented with 2.2 g/L sodium bicarbonate (Gibco), 10% FBS (HyClone) and 1% penecillin/streptomycin (HyClone). 24 hours later, triplicate wells were treated with HGS ETR1 (40 ng/ml) in combination with compound. Cells were incubated in the presence of compound and HGS agonistic Trail receptor antibody, ETR1 (Mapatumamab, 40 ng/ml) for 72 hours. Metabolic viability of remaining cells was assessed by MTT (thiazolyl blue tetrazolium bromide, Sigma) assay.
as §1

[3] = system: Rheumatoid arthritis human fibroblast-like synoviocytes (HFLS-RA); experiment: Synoviocytes + Fas antibody cell survival assay (Cell Titer-Glo); details: with 300 ng/ml anti-human CD95 (Fas) antibody CH-11, 72 hours, read-out: EC50 synoviocyctes + FAS
Protocol: Rheumatoid arthritis human fibroblast-like synoviocytes (HFLS-RA, Cell Applications Inc.) were seeded in 96-well plates at 3000 cells per well in complete synoviocyte growth medium (Cell Applications Inc.) one day prior to treatment. Triplicate wells were treated for 72 hours compound in combination with 300 ng/ml anti-human CD95 (Fas) antibody (clone CH-11, Beckman Coulter/Immunotech). Cell survival was measured by Cell Titer-Glo Luminescent Assay (Promega).
as §1

| Compound | EC50 [1] [nM] | EC50 [2] [nM] | EC50 [3] [nM] |
| --- | --- | --- | --- |
| CN[C@@H](C)C(=O)N[C@H](C(=O)N1CCC[C@H]1CN(CCc1ccccc1)C(=O)CNC(=O)c1ccc(-c2ccc(C(=O)NCC(=O)N(CCc3ccccc3)C[C@@H]3CCCN3C(=O)[C@@H](NC(=O)[C@H](C)NC)C3CCCCC3)cc2)cc1)C1CCCCC1 [Compound 2] | < 100 | < 100 | < 100 |
| CN[C@@H](C)C(=O)N[C@H](C(=O)N1CCC[C@H]1CN(CCc1ccc(F)cc1)C(=O)c1ccc(-c2ccc(C(=O)N(CCc3ccc(F)cc3)C[C@@H]3CCCN3C(=O)[C@@H](NC(=O)[C@H](C)NC)C3CCCCC3)cc2)cc1)C1CCCCC1 [Compound 6] | < 100 | < 100 | < 100 |
| CN[C@@H](C)C(=O)N[C@H](C(=O)N1CCC[C@H]1CN(CCc1ccc(F)cc1)C(=O)CNC(=O)c1ccc(-c2ccc(C(=O)NCC(=O)N(CCc3ccc(F)cc3)C[C@@H]3CCCN3C(=O)[C@@H](NC(=O)[C@H](C)NC)C3CCCCC3)cc2)cc1)C1CCCCC1 [Compound 8] | < 100 | < 100 | < 100 |
| CN[C@@H](C)C(=O)N[C@H](C(=O)N1CCC[C@H]1CN(CCc1ccccc1)C(=O)CNC(=O)c1ccc(-c2ccc(C(=O)NCC(=O)N(CCc3ccccc3)C[C@@H]3CCCN3C(=O)[C@@H](NC(=O)[C@H](C)NC)C3CCCC3)cc2)cc1)C1CCCC1 [Compound 17] | < 100 | < 100 | < 100 |
| CN[C@@H](C)C(=O)N[C@H](C(=O)N1CCC[C@H]1CN(CCc1ccccc1)C(=O)c1ccc(-c2ccc(C(=O)N(CCc3ccccc3)C[C@@H]3CCCN3C(=O)[C@@H](NC(=O)[C@H](C)NC)C3CCCCC3)cc2)cc1)C1CCCCC1 [Compound 18] | – | < 100 | < 100 |
| CN[C@@H](C)C(=O)N[C@H](C(=O)N1CCC[C@H]1CN(CCc1ccccc1)C(=O)c1ccc2cc(C(=O)N(CCc3ccccc3)C[C@@H]3CCCN3C(=O)[C@@H](NC(=O)[C@H](C)NC)C3CCC3)ccc2c1)C1CCC1 [Compound 19] | – | < 100 | < 100 |
| CN[C@@H](C)C(=O)N[C@H](C(=O)N1CCC[C@H]1CN(CCc1ccccc1)C(=O)c1ccc2cc(C(=O)N(CCc3ccccc3)C[C@@H]3CCCN3C(=O)[C@@H](NC(=O)[C@H](C)NC)C3CC3)ccc2c1)C1CC1 [Compound 20] | – | < 100 | > 100 |
| CN[C@@H](C)C(=O)N[C@H](C(=O)N1CCC[C@H]1CN(CCc1ccccc1)C(=O)c1ccc(-c2ccc(C(=O)N(CCc3ccccc3)C[C@@H]3CCCN3C(=O)[C@@H](NC(=O)[C@H](C)NC)C3CCC3)cc2)cc1)C1CCC1 [Compound 21] | – | < 100 | < 100 |
| CN[C@@H](C)C(=O)N[C@H](C(=O)N1CCC[C@H]1CN(CCc1ccccc1)C(=O)c1ccc(-c2ccc(C(=O)N(CCc3ccccc3)C[C@@H]3CCCN3C(=O)[C@@H](NC(=O)[C@H](C)NC)C3CC3)cc2)cc1)C1CC1 [Compound 22] | – | < 100 | < 100 |
| CN[C@@H](C)C(=O)N[C@H](C(=O)N1CCC[C@H]1CN(CCc1ccccc1)C(=O)c1ccc(-c2ccc(C(=O)N(CCc3ccccc3)C[C@@H]3CCCN3C(=O)[C@@H](NC(=O)[C@H](C)NC)C3CCCC3)cc2)cc1)C1CCCC1 [Compound 23] | – | < 100 | < 100 |
